Measured values: PubChem BioAssay AID1194 (EPA DSSTox, 2008)
Activity calls are given as the source filed them.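 The calls were made as follows: active = chemicals rated mutagenic or weakly mutagenic in the Salmonella bacterial test by one literature review, or positive overall by another; inconclusive = no clear call, values can overlap the other calls; inactive = the rest.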

Test system: Salmonella typhimurium Ames mutagenicity, literature compiled
Experiment: DSSTox (CPDBAS) Carcinogenic Potency Database Salmonella Mutagenicity
Description: The Carcinogenic Potency Database (CPDB) is a unique and widely used international resource of the results of over 6500 chronic, long-term animal cancer tests on over 1500 chemical substances. The CPDB provides easy access to the bioassay literature, with qualitative and quantitative analyses of both positive and negative experiments that have been published over the past 50 years in the general literature and by the National Cancer Institute/National Toxicology Program. The CPDB standardizes the diverse literature of cancer bioassays that vary widely in protocol, histopathological examination and nomenclature, and in the published author's choices of what information to provide in their papers. Results are reported in the CPDB for tests in rats, mice, hamsters, dogs, and nonhuman primates, and are based on the most positive result among all experiments for each sex-species. The DSSTox CPDBAS (all species) file incorporates data from the CPDB Summary Tables for the full list of over 1500 chemical substances tested in at least one species.
A chemical is classified within the CPDB as mutagenic, i.e. "active", in the Salmonella assay if it was evaluated overall as either "mutagenic" or "weakly mutagenic" by Zeiger [Zeiger, E. (1997) Genotoxicity Database. In: Gold and Zeiger, Eds. Handbook of Carcinogenic Potency and Genotoxicity Databases. Boca Raton, FL: CRC Press, pp. 687-729. http://potency.berkeley.edu/CRCbook.html] or as overall "positive" by the EPA Gene-Tox Program [Kier et al. (1986) Mutat. Res. 168: 69-240].

Nc1nc(-c2ccc([N+](=O)[O-])o2)cs1
outcome: active

[Cl-].[Cl-].[Sn+2]
outcome: inactive

Cc1cc(Cl)ccc1N
outcome: inactive; active

Nc1c(Cl)c(Cl)nc(C(=O)O)c1Cl
outcome: inactive; active

O=P(O)(O)O
outcome: active; inactive

CC(=O)N(O)c1ccc2c(c1)Cc1ccccc1-2
outcome: active; inactive

OCCN(CCO)CCO
outcome: inactive; active

Nc1ccc(N=Nc2ccccc2)c(N)n1
outcome: inactive

Cc1ccc2c(c1N)C(=O)c1ccccc1C2=O
outcome: active

COc1cccc2c1cc([N+](=O)[O-])c1c(C(=O)O)cc3c(c12)OCO3
outcome: active

CN(Cc1cnc2nc(N)nc(N)c2n1)c1ccc(C(=O)N[C@@H](CCC(=O)O)C(=O)O)cc1
outcome: inactive

COc1cc(-c2ccc(N=C=O)c(OC)c2)ccc1N=C=O
outcome: active

Cc1cc(O)c(C(C)(C)C)cc1Sc1cc(C(C)(C)C)c(O)cc1C
outcome: inactive; active

C=CC(=C)C
outcome: inactive

CC(=O)O[C@@H]1[C@@H](O)C2OC3C=C(C)C(=O)C(O)[C@@]3(CO)[C@]1(C)[C@]21CO1 (stereo partly drawn)
outcome: inactive; active

CC(C)CON=O
outcome: active; inactive

NC(N)=O
outcome: inactive; active

COc1ccc(N)cc1N
outcome: active; inactive

CC(=O)NCc1nc(-c2ccc([N+](=O)[O-])o2)no1
outcome: active

O=c1cc(CO)occ1O
outcome: active; inactive

c1ccc(N=Nc2ccccc2)cc1
outcome: active

Clc1ccccc1
outcome: inactive; active

Nc1cc(Cl)cc(C(=O)O)c1Cl
outcome: active

CCOc1ccc2c(c1)C(C)=CC(C)(C)N2
outcome: inactive; active

Oc1ccc2ccccc2c1N=Nc1ccccc1
outcome: active; inactive

O=CNNc1nc(-c2ccc([N+](=O)[O-])o2)cs1
outcome: active; inactive

O=C(O)C(Cl)(Cl)Cl
outcome: inactive

CCCCCCCCCCCCCCCC(=O)OC/C=C(C)/C=C/C=C(C)/C=C/C1=C(C)CCCC1(C)C
outcome: inactive; active

CCn1c2ccccc2c2cc(N)ccc21
outcome: active

Nc1ccc2cc3ccc(N)cc3nc2c1
outcome: active

C=CCN=C=S
outcome: active

Cc1ccccc1S(N)(=O)=O
outcome: inactive

c1ccc2n[nH]nc2c1
outcome: active; inactive

CC(COc1ccccc1)N(CCCl)Cc1ccccc1 (stereo not drawn)
outcome: active; inactive

COP(=O)(OC)C(O)C(Cl)(Cl)Cl (stereo not drawn)
outcome: active

NCCCCCCCCCCC(=O)O
outcome: inactive; active

C[C@H](CCC(=O)O)[C@H]1CC[C@H]2[C@@H]3CC[C@@H]4C[C@H](O)CC[C@]4(C)[C@H]3CC[C@]12C
outcome: inactive

CCOC(=O)C1OC1(C)c1ccccc1 (stereo not drawn)
outcome: inactive; active

COP(=S)(OC)Oc1ccc(SC)c(C)c1
outcome: inactive; active

Cc1ccc2ncccc2c1
outcome: active

CCOc1ccc(NC(C)=O)cc1
outcome: active; inactive

Nc1ccc(S(=O)(=O)c2ccc(N)cc2)cc1
outcome: inactive; active

Nc1c(Cl)cc([N+](=O)[O-])cc1Cl
outcome: active

CCCCC1C(=O)N(c2ccccc2)N(c2ccccc2)C1=O
outcome: inactive

CC(O)c1ccccc1 (stereo not drawn)
outcome: inactive; active

C=COC(C)=O
outcome: inactive

COc1ccc(C(=O)/C(Br)=C\C(=O)O)cc1
outcome: active

NC(=O)Cc1cccc2ccccc12
outcome: active

CCOC(N)=O
outcome: active; inactive

CN(C)N=Nc1ccccc1
outcome: active

Nc1ccc(-c2ccc(N)cc2)cc1
outcome: active

O=[N+]([O-])c1ccc(-c2nc(N3CCOCC3)c3ccccc3n2)s1
outcome: active

COc1cc(/C=C/C(=O)CC(=O)/C=C/c2ccc(O)c(OC)c2)ccc1O
outcome: inactive

Cc1ncc[nH]1
outcome: inactive

O=S1OCC2C(CO1)C1(Cl)C(Cl)=C(Cl)C2(Cl)C1(Cl)Cl (stereo not drawn)
outcome: inactive; active

CC(C)=CCC/C(C)=C/C=O
outcome: inactive; active

C=CCc1ccc(OC)cc1
outcome: inactive; active

COc1ccc(C(Cl)=C(c2ccc(OC)cc2)c2ccc(OC)cc2)cc1
outcome: inactive

CC1CN(/N=C/c2ccc([N+](=O)[O-])o2)C(=O)N1 (stereo not drawn)
outcome: active; inactive

Clc1nc(Cl)nc(Nc2ccccc2Cl)n1
outcome: inactive

OCC(CO)(CBr)CBr
outcome: active

Oc1ccc(Cl)cc1Cc1ccccc1
outcome: inactive; active

CN(N=O)C(=O)c1ccccc1
outcome: active

CCCCC(CC)CO (stereo not drawn)
outcome: inactive; active

O=[N+]([O-])c1ccc(Cl)cc1
outcome: active

CC(C)CCCCCCOC(=O)c1ccccc1C(=O)OCCCCCCC(C)C
outcome: inactive; active

C=CN1CCCC1=O
outcome: inactive

ClC(Br)Br
outcome: inactive

CN(C)C(=O)Nc1cccc(C(F)(F)F)c1
outcome: inactive

CCC[N+](=O)[O-]
outcome: inactive; active

Clc1ccc(C(c2ccc(Cl)cc2)C(Cl)(Cl)Cl)cc1
outcome: inactive

O=C(O)c1ccccc1
outcome: inactive

Nc1ccc(N)c2c1C(=O)c1c(N)ccc(N)c1C2=O
outcome: active

CN(N=O)c1ccccn1
outcome: active; inactive

O=P(OCC(Br)CBr)(OCC(Br)CBr)OCC(Br)CBr (stereo not drawn)
outcome: active

NC(=O)c1cnccn1
outcome: inactive; active

Cn1c(N)nc2ncc(-c3ccccc3)cc21
outcome: active

CCc1nc(N)nc(N)c1-c1ccc(Cl)cc1
outcome: inactive; active

CN(C)C=O
outcome: inactive

C1COCCO1
outcome: inactive; inconclusive

Nc1ccc(N=Nc2ccc(-c3ccc(N=Nc4c(S(=O)(=O)O)cc5cc(S(=O)(=O)O)c(N=Nc6ccccc6)c(O)c5c4N)cc3)cc2)c(N)c1
outcome: active

CC1=CC(=O)CC(C)(C)C1
outcome: inactive; active

Cc1ccc(OP(=O)(Oc2ccc(C)cc2)Oc2ccc(C)cc2)cc1
outcome: inactive; active

O=Nc1ccc(NO)cc1
outcome: active; inactive

OCl
outcome: inactive; active

ClC(Cl)(Cl)c1ccccc1
outcome: active

CC=O
outcome: inactive; active

Oc1cccc(O)c1
outcome: inactive

Cc1nc(N)cc2[nH]c3ccccc3c12
outcome: active

OCCOCCOCCO
outcome: active; inactive

CCC[CH2][Sn]([CH2]CCC)([O]C(C)=O)[O]C(C)=O
outcome: inactive

CCN(Cc1cccc(S(=O)(=O)O)c1)c1ccc(C(=C2C=CC(=[N+](CC)Cc3cccc(S(=O)(=O)O)c3)C=C2)c2ccc(O)cc2S(=O)(=O)[O-])cc1
outcome: inactive; active

Clc1ccc(C(c2ccc(Cl)cc2)C(Cl)Cl)cc1
outcome: inactive

CBr
outcome: active

CC1(C)S[C@@H]2[C@H](NC(=O)[C@H](N)c3ccccc3)C(=O)N2[C@H]1C(=O)O
outcome: inactive

OC[P+](CO)(CO)CO
outcome: inactive; active

CCC1(c2ccccc2)C(=O)N=C(O)NC1=O (stereo not drawn)
outcome: inactive

c1ccc(Nc2ccc3ccccc3c2)cc1
outcome: inactive; active
